Here are results for one compound from patent publication US11738065B2, “Polypeptides and analogues thereof for use in the treatment of diabetes and bone disorders” (UNIVERSITY OF ULSTER, priority 2015, dated 2023).

Marks after values point to notes of the source that are not given here.

Series [1] deals with T1, purified porcine DPP-4 (Sus scrofa, UniProt P22411).
T1 construct: purchased Sigma-Aldrich, Dorset, UK
The experiment in a line: DPP-4 degradation / in vitro DPP-4 half-life. Type of series: in vitro ADME. As to conditions: incubated in the presence of DPP-4 for up to 12 hs. As for the experimental part: (§1) For calculation of experimental molecular masses, peptide samples (1 μg) were mixed with α-cyano-4-hydroxycinnamic acid (1 μg) and applied to a Voyager-DE BioSpectrometry Workstation and mass-to-charge (m/z) ratio verses peak intensity recorded by MALDI-TOF mass spectrometry. […] Degradation profiles were obtained using rp-HPLC analysis and HPLC peak area data used to calculate percentage intact peptide remaining at each time point.
(§2) Briefly, polypeptides (20 μg) were incubated with 5 μl of purified DPP-4 (5 mU, Sigma-Aldrich, Dorset, UK) in 50 mM TEA-HCl (pH 7.8; final volume 450 μl) at 37° C. for 0, 1, 4 and 12 hours. Enzymatic reactions were terminated by the addition of 50 μl TFA/H2O (10% v/v, Sigma-Aldrich, Dorset, UK). Reaction products were then separated by HPLC and analysed using MALDI-TOF.

Series [2] deals with T2, DPP-4 (Sus scrofa, UniProt P22411).
T2 construct: purchased Sigma-Aldrich, Dorset, UK
T2 sequence (P22411 whole entry): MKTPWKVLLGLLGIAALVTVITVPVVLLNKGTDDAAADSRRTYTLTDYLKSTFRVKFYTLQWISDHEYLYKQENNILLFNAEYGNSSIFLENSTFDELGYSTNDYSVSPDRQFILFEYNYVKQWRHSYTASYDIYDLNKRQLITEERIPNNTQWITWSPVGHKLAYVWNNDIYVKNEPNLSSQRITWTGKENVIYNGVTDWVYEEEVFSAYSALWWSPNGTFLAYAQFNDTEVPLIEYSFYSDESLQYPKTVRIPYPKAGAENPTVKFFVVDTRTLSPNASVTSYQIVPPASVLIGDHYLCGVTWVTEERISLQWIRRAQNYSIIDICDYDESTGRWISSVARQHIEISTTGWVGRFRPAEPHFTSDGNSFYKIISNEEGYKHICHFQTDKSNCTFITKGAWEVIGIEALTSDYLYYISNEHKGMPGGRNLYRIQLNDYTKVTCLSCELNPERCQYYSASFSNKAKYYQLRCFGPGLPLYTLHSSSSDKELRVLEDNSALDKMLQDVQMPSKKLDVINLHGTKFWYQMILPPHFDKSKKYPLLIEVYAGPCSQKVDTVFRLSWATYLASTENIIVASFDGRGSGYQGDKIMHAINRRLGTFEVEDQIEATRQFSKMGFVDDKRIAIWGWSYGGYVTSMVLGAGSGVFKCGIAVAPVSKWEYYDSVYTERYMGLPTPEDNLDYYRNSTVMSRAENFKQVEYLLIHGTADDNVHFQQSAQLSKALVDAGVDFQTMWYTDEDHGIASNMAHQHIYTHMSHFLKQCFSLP
Kind of series: DPP-4 degradation / in vitro DPP-4 half-life. The following applies: pig; 37° C., 50 mmol/L TEA-HCl pH 7.8, 5 mU purified porcine DPP-4, 0-12 h. The format is in vitro ADME, porcine. The procedure:
as §1, §2

For series [3], the system named is high fat fed mice. Kind of series: Glucose tolerance test after 21 days treatment. The format is in vivo. As for the experimental part:
Twice daily (09:30 and 17:30 h) i.p. injections of saline vehicle (0.9% w/v NaCl), polypeptides (at 25 nmol/kg bw) were administered for 21 days in high fat mice. Energy intake and body weight were monitored daily, and non-fasting blood glucose and plasma insulin concentrations were assessed at 3 day intervals. On day 21, a non-fasted 24 h glucose profile was conducted. At the end of the treatment period, i.p. glucose tolerance (18 mmol/kg bw), biological response to GIP (18 mmol/kg glucose in combination with native GIP (25 nmol/kg); i.p.) and insulin sensitivity (15 U/kg bw; i.p.) tests were performed. HOMA-IR was determined using the equation HOMA-IR=fasting glucose (mmol/l)×fasting insulin (mU/l)/22.5. All test solutions were administered in a final volume of 5 ml/kg body weight, at 10:00 h without previous 09:30 h peptide injection. Terminal analysis included measurement of total body fat and lean mass by DEXA scanning (Piximus Densitometer, Inside Outside Sales, Madison Wis., USA) and extraction of pancreatic tissue for analysis as detailed below. Immunohistochemistry Pancreatic tissue was excised, divided longitudinally and either immediately snap frozen for subsequent extraction of insulin using acid ethanol extraction (5 ml/g) as described by Irwin et al., 2015 (Diabetes. 2015 August; 64(8):2996-3009), or processed for immunohistochemical examination. Briefly, pancreatic tissues were fixed in 4% parafolmaldehyde at 4° C. for 48 h. Pancreata were then embedded in paraffin wax and processed using an automated tissue processor (Leica TP1020, Leica Microsystems, Nussloch, Germany). Immunohistochemistry was performed as described by Vasu et al., 2014 (PLoS One. 2014 Jun. 26; 9(6):e101005). Succinctly, tissue sections were deparaffinised, rehydrated and probed with primary antibodies: mouse anti-insulin antibody (1:500; Abcam, ab6995) or guinea-pig anti-glucagon antibody (PCA2/4, 1:400; raised in-house). The sections were then incubated with secondary antibody, Alexa Fluor 488 goat anti-guinea pig IgG (1:400) or Alexa Fluor 594 goat anti-mouse IgG (1:400); respectively. […] Islet parameters were analysed using Cell^F image analysis software (Olympus Soft Imaging Solutions, GmbH).
Tests were conducted after twice daily treatment with saline vehicle (0.9% (w/v) NaCl), (DAla^2)GIP and (DAla^2)GIP/xenin-8-Gln (each at 25 nmol/kg bw) for 21 days. For glucose tolerance test, blood glucose and plasma insulin concentrations were measured before and 15, 30, 60 and 105 min after i.p injection of glucose (18 mmol/kg bw). For metabolic response to GIP, blood glucose and plasma insulin concentrations were measured before and 15, 30, 60 and 105 min after i.p injection of glucose (18 mmol/kg bw) in combination with GIP (25 nmol/kg bw). […]

Series [4] relates to high fat fed mice. The experiment in a line: Metabolic response to GIP after 21 days treatment. The format is in vivo. As for the experimental part: Twice daily (09:30 and 17:30 h) i.p. injections of saline vehicle (0.9% w/v NaCl), polypeptides (at 25 nmol/kg bw) were administered for 21 days in high fat mice. Energy intake and body weight were monitored daily, and non-fasting blood glucose and plasma insulin concentrations were assessed at 3 day intervals. On day 21, a non-fasted 24 h glucose profile was conducted. At the end of the treatment period, i.p. glucose tolerance (18 mmol/kg bw), biological response to GIP (18 mmol/kg glucose in combination with native GIP (25 nmol/kg); i.p.) and insulin sensitivity (15 U/kg bw; i.p.) tests were performed. HOMA-IR was determined using the equation HOMA-IR=fasting glucose (mmol/l)×fasting insulin (mU/l)/22.5. All test solutions were administered in a final volume of 5 ml/kg body weight, at 10:00 h without previous 09:30 h peptide injection. Terminal analysis included measurement of total body fat and lean mass by DEXA scanning (Piximus Densitometer, Inside Outside Sales, Madison Wis., USA) and extraction of pancreatic tissue for analysis as detailed below. Immunohistochemistry Pancreatic tissue was excised, divided longitudinally and either immediately snap frozen for subsequent extraction of insulin using acid ethanol extraction (5 ml/g) as described by Irwin et al., 2015 (Diabetes. 2015 August; 64(8):2996-3009), or processed for immunohistochemical examination. Briefly, pancreatic tissues were fixed in 4% parafolmaldehyde at 4° C. for 48 h. Pancreata were then embedded in paraffin wax and processed using an automated tissue processor (Leica TP1020, Leica Microsystems, Nussloch, Germany). Immunohistochemistry was performed as described by Vasu et al., 2014 (PLoS One. 2014 Jun. 26; 9(6):e101005). Succinctly, tissue sections were deparaffinised, rehydrated and probed with primary antibodies: mouse anti-insulin antibody (1:500; Abcam, ab6995) or guinea-pig anti-glucagon antibody (PCA2/4, 1:400; raised in-house). The sections were then incubated with secondary antibody, Alexa Fluor 488 goat anti-guinea pig IgG (1:400) or Alexa Fluor 594 goat anti-mouse IgG (1:400); respectively. The slides were viewed under a FITC (488 nm) or TRITC filter (594 nm) using a fluorescent microscope (Olympus system microscope, model BX51) and photographed using a DP70 camera adapter system. Islet parameters were analysed using Cell^F image analysis software (Olympus Soft Imaging Solutions, GmbH).
Tests were conducted after twice daily treatment with saline vehicle (0.9% (w/v) NaCl), (DAla^2)GIP and (DAla^2)GIP/xenin-8-Gln (each at 25 nmol/kg bw) for 21 days. For glucose tolerance test, blood glucose and plasma insulin concentrations were measured before and 15, 30, 60 and 105 min after i.p injection of glucose (18 mmol/kg bw). For metabolic response to GIP, blood glucose and plasma insulin concentrations were measured before and 15, 30, 60 and 105 min after i.p injection of glucose (18 mmol/kg bw) in combination with GIP (25 nmol/kg bw). All studies were conducted in 18 h fasted mice. AUC values (0-105 min) for blood glucose and plasma insulin are shown. Values represent means±SEM for 6-8 mice. *P<0.05, **P<0.01, […] compared to high fat controls. ^ΔP<0.05, ^ΔΔP<0.01, ^ΔΔΔP<0.001 compared to lean controls.

For series [5], the system named is lean control mice. Kind of series: Acute and persistent glucose lowering and insulin releasing effects in lean control mice. The format is in vivo. As for the experimental part:
All animal experiments were carried out in accordance with the UK Animals (Scientific Procedures) Act 1986. For food intake studies, fasted (18 h) mice were given intraperitoneal (i.p) injections of polypeptides at a dose of 25, 100 or 250 nmol/kg bw. Mice were then allowed free access to normal chow for 180 mins and cumulative food intake measured. […] Blood samples were collected from the cut tip on the tail vein of conscious mice into chilled fluoride/heparin glucose micro-centrifuge tubes (Sarstedt, Numbrecht, Germany) at the time points indicated in the Drawings. Blood glucose was measured directly using a hand-held Ascencia Contour blood glucose meter (Bayer Healthcare, Newbury, Berkshire, UK).

[6] abbreviates: 0-105 min, glucose 18 mmol/kg i.p., 18 h fasted, after 21 days 25 nmol/kg twice daily, mean ± SEM.
Setting [7] is: 21 days treatment, vs high fat controls.
The mark [8] stands for this setting: 0-105 min, glucose 18 mmol/kg + GIP 25 nmol/kg i.p., 18 h fasted, after 21 days treatment, mean ± SEM.
The mark [9] stands for this setting: 25 nmol/kg 4 h before glucose 18 mmol/kg, vs saline.

T1 sequence (P22411 whole entry): as above

`CC[C@H](C)[C@H](NC(=O)[C@H](CO)NC(=O)[C@H](Cc1ccc(O)cc1)NC(=O)[C@H](CC(=O)O)NC(=O)[C@H](CO)NC(=O)[C@@H](NC(=O)[C@H](Cc1ccccc1)NC(=O)[C@@H](NC(=O)CNC(=O)[C@H](CCC(=O)O)NC(=O)[C@@H](C)NC(=O)[C@@H](N)Cc1ccc(O)cc1)[C@@H](C)O)[C@@H](C)CC)C(=O)N[C@@H](C)C(=O)N[C@@H](CCSC)C(=O)N[C@@H](CC(=O)O)C(=O)N[C@@H](CCCCN)C(=O)N[C@H](C(=O)N[C@@H](Cc1c[nH]cn1)C(=O)N[C@@H](CCC(N)=O)C(=O)N[C@@H](CCC(N)=O)C(=O)N[C@@H](CC(=O)O)C(=O)N[C@@H](Cc1ccccc1)C(=O)N[C@H](C(=O)N[C@@H](CC(N)=O)C(=O)N[C@@H](Cc1c[nH]c2ccccc12)C(=O)N[C@@H](CC(C)C)C(=O)N[C@@H](CC(C)C)C(=O)N[C@@H](C)C(=O)N[C@@H](CCC(N)=O)C(=O)N[C@@H](CCCCN)C(=O)NCC(=O)N[C@@H](CCCCN)C(=O)N[C@@H](CCCCN)C(=O)N[C@@H](CC(N)=O)C(=O)N[C@@H](CC(=O)O)C(=O)N[C@@H](Cc1c[nH]c2ccccc12)C(=O)N[C@@H](CCCCN)C(=O)N[C@@H](Cc1c[nH]cn1)C(=O)N[C@@H](CC(N)=O)C(=O)N[C@H](C(=O)N[C@H](C(=O)N[C@@H](CCC(N)=O)C(=O)O)[C@@H](C)O)[C@@H](C)CC)C(C)C)[C@@H](C)CC` [(DAla2)GIP, TYR-(d)ALA-GLU-GLY-THR-PHE-ILE-SER-ASP-TYR-SER-ILE-ALA-MET-ASP-LYS-ILE-HIS-GLN-GLN-ASP-PHE-VAL-ASN-TRP-LEU-LEU-ALA-GLN-LYS-GLY-LYS-LYS-ASN-ASP-TRP-LYS-HIS-ASN-ILE-THR-GLN]: the “Intactness on incubation with DPP-4” value in series [1] was “remained fully intact”. This compound also displayed a half-life in series [2] above 12 h. In addition, in series [3] (setting [6]), the “Glucose tolerance test Blood glucose AUC” value is 1714.7 ± 138.6^Δ mmol/l · min and the “Glucose tolerance test Plasma insulin AUC” value was 65.4 ± 9.2^Δ ng/ml · min. Further, the “Glucose-stimulated plasma insulin AUC” value in series [3] (setting [7]) was “reduced, albeit non-significantly”. Also, in series [3] (21 days treatment, vs saline controls), the “Overall AUC blood glucose following a glucose load” value is given as “strong tendency to reduce overall AUC blood glucose levels”. For the same compound, in series [4] (setting [8]), the “Metabolic response to GIP Blood glucose AUC” value was 1029.5 ± 138.0* mmol/l · min and the “Metabolic response to GIP Plasma insulin AUC” value was 142.3 ± 19.2**^,ΔΔΔ ng/ml · min. In series [4] (21 days treatment), the “Glucose lowering and insulin releasing actions of native GIP” value is listed as “significantly (P<0.05) improved”. Also, the “Decrease of overall blood glucose AUC in response to GIP vs saline treated control mice” value in series [4] (21 days treatment, P<0.05) is 36%. Besides, the “GIP-induced elevations of plasma insulin (AUC)” value in series [4] (setting [7]) is given as “significantly (P<0.05 to P<0.01) augmented”. Further, in series [5] (setting [9]), the “Overall AUC blood glucose, peptide 4 h prior to glucose load” value is on record as “significantly reduced” and the “Plasma insulin AUC, peptide 4 h prior to glucose load” value is on record as “increased plasma insulin AUC values (P<0.05)”. Further, the “Blood glucose at 15 min post-injection” value in series [5] (25 nmol/kg with glucose 18 mmol/kg i.p.) is given as “significant (P<0.05) reduction in blood glucose levels”. The “Blood glucose at 30 min post injection” value in series [5] (25 nmol/kg with glucose 18 mmol/kg i.p., non-fasted mice, vs glucose alone) was “significantly (P<0.05) lowered blood glucose values”. The “Overall 0-105 min AUC blood glucose” value in series [5] (25 nmol/kg with glucose 18 mmol/kg i.p., vs glucose alone) is reported as “significantly (P<0.05) decreased”.

In general, half-life refers to the time needed for the level to fall by half in the phase considered. A lower half-life goes with rapid decline.
